# Laboratory results from patent US9314498B2, “Bacteriocin derived from Lactobacillus rhamnosus” (priority 2011, dated 2016).
# How the values were obtained:
# Format in all cases: cell-based
# [1] = test system: Candida albicans MYA274 strain; assay: Boiling experiment: antimicrobial activity (ATP) against Candida albicans MYA274; details: concluded from supernatant boiled at 100° C. for 20 minutes; peptides not directly used
# Procedure: In Example 9, antimicrobial activity against the Candida albicans MYA274 strain was investigated. The Candida albicans MYA274 strain was precultured in Sabouraud dextrose broth (Difco) at 37° C. for 24 hours, and then washed twice with MQ water, followed by being prepared such that OD600 is 0.3 (1.0×10^7 cells/ml).
# In Example 9, the bacteriocin Kog1 or Kog2, or the Lactobacillus rhamnosus KO1 strain or KO3 strain, was not directly used. Instead, a lactic acid bacterium medium containing the Lactobacillus rhamnosus KO3 strain, 8020 yogurt (liquid type), was used in the experiment More specifically, the 8020 yogurt (liquid type) was prepared by adding the Lactobacillus rhamnosus KO3 strain at a concentration of 1% and YF-L811 starter at a concentration of 1% to the 15% skim milk+3% glucose medium, and then performing culture at 35° C. for 2 days.
# Such 8020 yogurt (liquid type) was centrifuged to obtain a supernatant from which the lactic acid bacterium was removed (hereinafter referred to as Supernatant B). In the experiment, Supernatant B and a sample prepared by boiling Supernatant B at 100° C. for 20 minutes (hereinafter referred to as Supernatant Boil) were used. […]
# In order to study changes in the antimicrobial activity by boiling, the following 3 kinds of samples were placed in a 24-well plate, and the value of ATP (pmol/L) after 24 hours of incubation at 37° C. was measured. […]
# [2] = test system: Aggregatibacter actinomycetemcomitans Hudoe001 strain; assay: Antimicrobial activity against Aggregatibacter actinomycetemcomitans Hudoe001; details: tested 0 to 50 μM
# [3] = test system: Candida albicans GDH18 strain; assay: Antimicrobial activity (CFU count, percentage of living cells) against Candida albicans GDH18; details: 37° C., 90 minutes, 1 mM phosphate buffer
# Text: As the Candida, cariogenic bacteria and periodontal disease bacteria, the Candida albicans GDH18 strain, Streptococcus sobrinus B-13 strain, Streptococcus mutans NCTC10449 strain, Streptococcus mutans Ingbritt strain, Porphyromonas gingivalis Hudoi001 strain and Aggregatibacter actinomycetemcomitans Hudoe001 strain were used. The test strains were provided from Faculty of Dentistry, Hiroshima University, Japan, and Hiroshima University Dental Hospital.
# The Candida albicans GDH18 strain was precultured using SD medium (Difco) at 37° C. for 24 hours under aerobic conditions. The Streptococcus sobrinus B-13 strain, Streptococcus mutans NCTC10449 strain and Streptococcus mutans Ingbritt strain were precultured using TSB medium (Difco) supplemented with 5% yeast extract (Difco) at 37° C. for 24 hours under aerobic conditions. The Porphyromonas gingivalis Hudoi001 strain and Aggregatibacter actinomycetemcomitans Hudoe001 strain were precultured using BHI medium (Difco) supplemented with hemin (5 mg/L) and vitamin K3 (1 mg/L) at 37° C. for 96 hours under anaerobic conditions with Anaero Pack System (Mitsubishi Gas Chemical Company, Inc.).
# After the culture, the cells of the Candida, cariogenic bacteria and periodontal disease bacteria were collected by centrifugation at 1000×g, and washed twice with 1 mM phosphate buffer (pH 6.8). The cells were then suspended such that the final concentration was 1×10^8 cfu/ml or 1×10^7 cells/m. For suspension of the Streptococcus strains, ultrasonic treatment was also carried out.
# Evaluation of the antimicrobial activity was carried out by the method by Edgerton and others (1998) with some modifications. With 20 mL of 1 mM phosphate buffer containing 0 to 25 μM Kog1 or Kog2 synthesized in Example 1, 20 μl of the suspension of the Candida albicans GDH18 strain cultured and prepared by the method described in the above Preparation Example was mixed, and the resulting mixture was incubated at 37° C. for 90 minutes with shaking. As a control, 20 ml of 1 mM phosphate buffer alone was used. The reaction was stopped by addition of 360 ml of YNB medium (Difco), and the number of colonies formed (colony forming units; CFUs) was counted together with the number of colonies in the control, to determine the percentage of living bacterial cells. That is, the equation of: (CFUs of suspension containing Kog1 or Kog2/CFU ml^−1 of control suspension)×100 was used to calculate the percentage.
# [4] = test system: Streptococcus mutans Ingbritt strain; assay: Antimicrobial activity against Streptococcus mutans Ingbritt; details: 0 to 100 μM, FIG. 5
# [5] = test system: Porphyromonas gingivalis LPS (P.g-LPS) on RAW264.7 macrophage-like cells, TNF-α; assay: LPS inactivation: TNF-α secretion of RAW264.7 cells (ELISA)
# Procedure: As a medium, RPMI 1640 medium supplemented with 10% FBS (Fetal Bovine Serum) (Biological industries, Haemek, Israel), 1% antibiotic and 1% L-glutamine was used. In each well of a 24-well plate, 400 μl of the medium was placed, and 100,000 cells/well of mouse-derived RAW264.7 macrophage-like cells were inoculated thereto.
# The bacteriocin Kog1 or Kog2, which was the same as in Example 1, was incubated in an Eppendorf tube under each of the following 4 conditions together with Porphyromonas gingivalis LPS (manufactured by InvivoGen) (hereinafter referred to as P.g-LPS) and the same medium as described above, at 37° C. under a gas phase of 5% CO2 for 2 hours: (1) 100 ng/ml P.g-LPS positive control; (2) 100 ng/ml P.g-LPS+5 μM Kog1 or Kog2; (3) 100 ng/ml P.g-LPS+10 μM Kog1 or Kog2; (4) 100 ng/ml P.g-LPS+20 μM Kog1 or Kog2.
# The above-described medium placed in each well of the 24-well plate was removed using a pipetteman, and the medium in the Eppendorf tube for each of the 4 conditions described above was placed in the plate, followed by culturing the cells in the well plate at 37° C. under a gas phase of 5% CO2 for 12 hours. Thereafter, the culture supernatant was collected, and the amount of a chemokine ccl2 or the amount of a cytokine TNF-α secreted into the medium was quantified by the ELISA method by measuring the absorbance at 450 nm using a microplate reader. Since both ccl2 and TNF-α are involved in formation of inflammation, analysis of the relationship between the endotoxin LPS and the bacteriocins Kog1 and Kog2 is possible.
substance,measurement,setting,value
"Kog2: peptide having the amino acid sequence shown in SEQ ID NO: 2, bacteriocin of Lactobacillus rhamnosus, synthesized by the tea-bag method (MTKVRSSRLRPLTLRLLSAPARAQFLTIACRAILRYDLINS; listed as Lactobacillus rhamnosus)",heat resistance (antimicrobial activity after heating),[1],still maintain antimicrobial activity after heating
same,peptide concentration at which 100% of the strain was killed,[2],1.56 µM
same,peptide concentration at which 100% of the strain was killed,[3],0.39 µM
same,"antimicrobial activity compared to the other antimicrobial peptides (hBD2, lysozyme)",[4],capable of killing a larger amount of Streptococcus mutans even at relatively low peptide concentration
same,amount of the cytokine TNF-α secreted,"[5]; 100 ng/ml P.g-LPS + Kog2 above a certain level, as amount added increases",decreases
same,amount of the cytokine TNF-α secreted,[5]; 100 ng/ml P.g-LPS + small amount of Kog2 (5 μM),increases
